We go through 26 compounds from ChEMBL document CHEMBL1125888, “Inhibitors of cholesterol biosynthesis. 3. Tetrahydro-4-hydroxy-6-[2-(1H-pyrrol-1-yl)ethyl]-2H-pyran-2-one inhibitors of HMG-CoA reductase. 2. Effects of introducing substituents at positions three and four of the pyrrole nucleus” (J Med Chem, 1991).

The target of experiment [1] is T1, 3-hydroxy-3-methylglutaryl-coenzyme A reductase (Rattus norvegicus, UniProt P51639).
T1 sequence (P51639 whole entry): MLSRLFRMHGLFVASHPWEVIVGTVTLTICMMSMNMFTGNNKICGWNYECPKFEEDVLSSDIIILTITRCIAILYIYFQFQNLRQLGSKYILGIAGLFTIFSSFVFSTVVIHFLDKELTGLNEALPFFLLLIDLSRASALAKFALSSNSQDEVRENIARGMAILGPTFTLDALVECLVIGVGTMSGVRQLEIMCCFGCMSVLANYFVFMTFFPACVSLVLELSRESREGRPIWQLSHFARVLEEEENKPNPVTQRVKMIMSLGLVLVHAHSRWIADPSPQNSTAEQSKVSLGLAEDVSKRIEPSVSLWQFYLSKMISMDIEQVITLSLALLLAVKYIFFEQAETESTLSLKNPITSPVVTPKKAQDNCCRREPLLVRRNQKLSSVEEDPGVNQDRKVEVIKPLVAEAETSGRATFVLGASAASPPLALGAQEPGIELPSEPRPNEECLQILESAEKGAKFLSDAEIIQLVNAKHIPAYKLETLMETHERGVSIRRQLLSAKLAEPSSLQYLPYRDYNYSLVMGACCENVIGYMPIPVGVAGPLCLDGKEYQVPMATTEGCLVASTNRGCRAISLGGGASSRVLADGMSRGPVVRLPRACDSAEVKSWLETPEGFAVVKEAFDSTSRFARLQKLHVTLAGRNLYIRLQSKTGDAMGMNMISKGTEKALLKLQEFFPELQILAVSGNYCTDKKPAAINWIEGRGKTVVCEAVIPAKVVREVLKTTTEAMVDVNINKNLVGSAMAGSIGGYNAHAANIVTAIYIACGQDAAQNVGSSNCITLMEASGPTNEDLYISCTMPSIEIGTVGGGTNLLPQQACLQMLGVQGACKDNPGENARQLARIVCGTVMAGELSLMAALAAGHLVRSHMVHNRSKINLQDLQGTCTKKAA
Description: Inhibition of HMG-CoA reductase activity in partially purified rat liver.

The target of experiment [2] is T2, 3-hydroxy-3-methylglutaryl-coenzyme A reductase (Rattus norvegicus) (UniProt P51639).
T2 sequence (whole entry): T1 sequence (P51639 whole entry)
The experiment is described as follows: Relative potency against HMG-CoA reductase activity in partially purified rat liver. The class given is functional.

A word on the IC50: it is the midpoint of a concentration-inhibition curve. A lower IC50 goes with greater potency. In the case of `CC(C)c1cc(-c2ccncc2)c(-c2ccc(F)cc2)n1CC[C@@H]1C[C@@H](O)CC(=O)O1`, inhibition in experiment [1] was half-maximal at 310 nM (IC50). In experiment [2], this compound displayed a Relative potency of 2.1.
Take `CCOC(=O)c1c(-c2ccccc2)c(-c2ccc(F)cc2)n(CC[C@@H]2C[C@@H](O)CC(=O)O2)c1C(C)C`: the midpoint of inhibition in experiment [1], the IC50, lay at 200 nM. The compound further returned a Relative potency in experiment [2] of 35.5.
In experiment [2], `CC(C)c1c(C(=O)Nc2ccccc2)c(-c2ccccc2)c(-c2ccc(F)cc2)n1CC[C@@H]1C[C@@H](O)CC(=O)O1` (stereo in doubt; (+)-33) had a Relative potency of 500.
In experiment [1], `CC(C)c1c(Cl)c(Cl)c(-c2ccc(F)cc2)n1CC[C@@H]1C[C@@H](O)CC(=O)O1` yielded an IC50 of 28 nM. Further, the Relative potency in experiment [2] amounted to 78.6.
Take `CC(C)c1c(C(=O)Nc2ccccc2)c(-c2ccccc2)c(-c2ccc(F)cc2)n1CC[C@@H]1C[C@@H](O)CC(=O)O1` (racemic) [ATORVASTATIN LACTONE]: the IC50 in experiment [1] amounted to 25 nM.
In experiment [1], `CCOC(=O)c1c(-c2ccccc2)c(-c2ccccc2)n(CC[C@@H]2C[C@@H](O)CC(=O)O2)c1C` had an IC50 of 4000 nM. The same compound yielded a Relative potency in experiment [2] of 0.6.
In experiment [1], `CCOC(=O)c1c(C(=O)OCC)c(C(C)C)n(CC[C@@H]2C[C@@H](O)CC(=O)O2)c1-c1ccc(F)cc1` registered an IC50 of 350 nM. Also, the Relative potency in experiment [2] was 2.8.
In the same order, the values of `CC(C)c1cc(-c2ccccc2)c(-c2ccc(F)cc2)n1CC[C@@H]1C[C@@H](O)CC(=O)O1` are 347 nM and 12.5.
Consider `CC[C@H](C)C(=O)O[C@H]1CCC=C2C=C[C@H](C)[C@H](CC[C@@H]3C[C@@H](O)CC(=O)O3)[C@H]21` [MEVASTATIN], for which the IC50 in experiment [1] was 30 nM. For the same compound, in experiment [2], the Relative potency was 100.
Regarding `COC(=O)c1c(C(=O)OC)c(C(C)C)n(CC[C@@H]2C[C@@H](O)CC(=O)O2)c1-c1ccc(F)cc1`, in experiment [1], the IC50 is 180 nM. In addition, the Relative potency in experiment [2] is 14.3.
For `CC(C)c1c(-c2ccccc2)cc(-c2ccc(F)cc2)n1CC[C@@H]1C[C@@H](O)CC(=O)O1`, in that order: 120 nM and 36.3.
In experiment [1], `CCOC(=O)c1c(-c2ccccc2)c(-c2ccccc2)n(CC[C@@H]2C[C@@H](O)CC(=O)O2)c1CC` came in with a concentration for half-maximal inhibition (IC50) of 890 nM. The Relative potency in experiment [2] stood at 6.3.
For `CCOC(=O)c1c(-c2ccccc2)c(-c2ccccc2)n(CC[C@@H]2C[C@@H](O)CC(=O)O2)c1C(C)C`, in that order: 170 nM and 23.5.
In experiment [1], `CC(C)c1c(C(=O)Nc2ccccc2)c(-c2ccccc2)c(-c2ccc(F)cc2)n1CC[C@@H]1C[C@@H](O)CC(=O)O1` (stereo in doubt; (-)-33) [ATORVASTATIN LACTONE] came in with an IC50 of 440 nM.
Regarding `CCOC(=O)c1c(-c2ccccc2)c(C(C)C)n(CC[C@@H]2C[C@@H](O)CC(=O)O2)c1-c1ccc(F)cc1`, the IC50 in experiment [1] is 50 nM. Further, in experiment [2], the Relative potency was found to be 100.
For `CC(C)c1cc(-c2ccccn2)c(-c2ccc(F)cc2)n1CC[C@@H]1C[C@@H](O)CC(=O)O1`, the IC50 in experiment [1] was 46 nM. The compound further registered a Relative potency in experiment [2] of 76.
In the case of `CC(C)c1c(Br)c(Br)c(-c2ccc(F)cc2)n1CC[C@@H]1C[C@@H](O)CC(=O)O1`, it took 28 nM to reach half-maximal inhibition in experiment [1] (IC50). This compound also showed a Relative potency in experiment [2] of 78.6.
In the same order, the values of `CC(C)c1c(C(=O)OCc2ccccc2)c(-c2ccccc2)c(-c2ccc(F)cc2)n1CC[C@@H]1C[C@@H](O)CC(=O)O1` are 40 nM and 24.
In the same order, the values of `CC(C)c1cc(C(=O)C(F)(F)F)c(-c2ccc(F)cc2)n1CC[C@@H]1C[C@@H](O)CC(=O)O1` are 800 nM and 8.8.
For `Cc1c(C)c(C(C)C)n(CC[C@@H]2C[C@@H](O)CC(=O)O2)c1-c1ccc(F)cc1`, in that order: 140 nM and 16.
As for `CC(C)c1c(C(=O)Nc2ccccc2)c(-c2ccccc2)c(-c2ccc(F)cc2)n1CC[C@@H]1C[C@@H](O)CC(=O)O1` (stereo in doubt; (+)-33) [ATORVASTATIN LACTONE], it took 7 nM to reach half-maximal inhibition in experiment [1] (IC50). That is a single-digit nanomolar value.
`CCOC(=O)c1c(-c2ccc(C#N)cc2)c(-c2ccc(F)cc2)n(CC[C@@H]2C[C@@H](O)CC(=O)O2)c1C(C)C`: it took 280 nM to reach half-maximal inhibition in experiment [1] (IC50). In experiment [2], this compound returned a Relative potency of 16.2.
Consider `CC(C)c1cc(-c2cccnc2)c(-c2ccc(F)cc2)n1CC[C@@H]1C[C@@H](O)CC(=O)O1`, for which, in experiment [1], the IC50 is 71 nM. In experiment [2], this compound gave a Relative potency of 9.4.
For `CC(C)c1ccc(-c2ccc(F)cc2)n1CC[C@@H]1C[C@@H](O)CC(=O)O1`, the Relative potency in experiment [2] worked out at 10.9.
As for `CC(C)c1c(C(=O)Nc2ccccc2)c(-c2ccccc2)c(-c2ccc(F)cc2)n1CC[C@@H]1C[C@@H](O)CC(=O)O1` (racemic), in experiment [2], the Relative potency came out at 81.4.
As for `CC(C)c1c(C(=O)Nc2ccccc2)c(-c2ccccc2)c(-c2ccc(F)cc2)n1CC[C@@H]1C[C@@H](O)CC(=O)O1` (stereo in doubt; (-)-33), the Relative potency in experiment [2] was 13.9.
